Target: T1, MAO-A (Mus musculus, UniProt Q64133)
T1 sequence (Q64133 1-526): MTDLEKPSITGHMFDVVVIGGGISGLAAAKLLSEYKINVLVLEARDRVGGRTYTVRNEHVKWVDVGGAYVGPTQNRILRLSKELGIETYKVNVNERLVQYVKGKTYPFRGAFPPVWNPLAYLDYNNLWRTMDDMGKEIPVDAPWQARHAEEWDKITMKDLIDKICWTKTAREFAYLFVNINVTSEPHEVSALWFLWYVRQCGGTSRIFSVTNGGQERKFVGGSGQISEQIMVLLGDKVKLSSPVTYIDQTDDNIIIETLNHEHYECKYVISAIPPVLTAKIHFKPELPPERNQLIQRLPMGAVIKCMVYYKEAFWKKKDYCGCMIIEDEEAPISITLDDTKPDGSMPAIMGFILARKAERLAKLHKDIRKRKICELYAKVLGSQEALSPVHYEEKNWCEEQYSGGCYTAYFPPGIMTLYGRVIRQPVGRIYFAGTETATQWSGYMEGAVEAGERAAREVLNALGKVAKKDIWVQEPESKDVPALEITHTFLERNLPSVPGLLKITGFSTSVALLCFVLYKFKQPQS
Assay: Amplex Red MAO-A activity assay
Format: biochemical

## C#CCN(C)CCCOc1ccc(Cl)cc1Cl [clorgyline]
  Amplex Red MAO-A activity assay (tyramine substrate) in mouse brain homogenates,: 1 µM

From paper PMC2812670 (Experimental neurology, 2009)
